In article PMC6255837, “Ternary crystal structure of human RORγ ligand-binding-domain, an inhibitor and corepressor peptide provides a new insight into corepressor interaction” (Scientific Reports, 2018):
Each block holds one compound with its values, some of them ahead of it.

Legend:
IL-17 release = test system: IL-17 release; set-up: method as in PMID 26819660; conditions: orally administered, inflammatory model mice; cited from earlier work
RORγ-LBD [1] = target: T1, RORγ-LBD (Homo sapiens, UniProt P51449); experiment: FRET-based CoR peptide recruitment assay (dual TR-FRET); type: biochemical; conditions: for relative efficacy (RE) in CoR recruitment: compared with compound A
T1 construct: the glutathione-S-transferase (GST)-tagged RORγ-LBD produced in Sf9 cells; GST; made in house; host or cells: Sf9 cells
T1 sequence (P51449 269-508 limits assumed): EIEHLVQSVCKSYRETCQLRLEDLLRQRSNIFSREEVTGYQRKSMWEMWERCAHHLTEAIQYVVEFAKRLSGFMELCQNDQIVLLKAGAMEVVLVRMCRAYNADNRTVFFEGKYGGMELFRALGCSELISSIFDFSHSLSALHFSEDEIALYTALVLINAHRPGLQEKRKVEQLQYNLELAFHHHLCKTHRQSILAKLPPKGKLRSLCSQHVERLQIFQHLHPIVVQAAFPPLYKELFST
Protocol: Figure 1 The relative efficacy (RE) of CoR peptide recruitment to the RORγ-LBD and LUC activity by inverse agonists. […] Background activity in the absence of a standard inverse agonist is defined as 0% response; and maximum activity induced by a standard inverse agonist at 100μM as 100% response. […] A value of 100% is given to cells without inverse agonist in LUC assay. […] Detailed methods on plasmid construction, sample preparation, crystallization, structure determination, and FRET and LUC assays are provided in previous publications. […] The purified proteins were crystallized in complex with rockogenin and CoR peptide (ternary complex structures). […] The complex structures were determined by molecular replacement method using the RORγ-LBD apo structures as a search model. Diffraction data of the RORγ-LBD were collected at 21IDF (APS), Chicago, USA. Figures were generated using PyMOL[30].
(§1) For TR-FRET assays, the glutathione-S-transferase (GST)-tagged RORγ-LBD produced in Sf9 cells and peptide solution were incubated with compounds, and the 520/490 TR-FRET ratio was measured. Human RORγ LUC assays were carried out in accordance with the method of Madoux et al.[31] with some modifications and described previously. EC50 was calculated by curve-fitting in GraphPad Prism. Detailed descriptions of synthesis for the compounds are described elsewhere[9],[22].

RORγ-LBD [2] = target: T1, RORγ-LBD; experiment: FRET-based CoA peptide releasing assay (dual TR-FRET); type: biochemical; conditions: GST-tagged RORγ-LBD, read-out: EC50 release of CoA peptide (FRET)
Protocol: Figure 1 The relative efficacy (RE) of CoR peptide recruitment to the RORγ-LBD and LUC activity by inverse agonists. […] Background activity in the absence of a standard inverse agonist is defined as 0% response; and maximum activity induced by a standard inverse agonist at 100μM as 100% response. […] A value of 100% is given to cells without inverse agonist in LUC assay.
Detailed methods on plasmid construction, sample preparation, crystallization, structure determination, and FRET and LUC assays are provided in previous publications. […] The purified proteins were crystallized in complex with rockogenin and CoR peptide (ternary complex structures). […] The complex structures were determined by molecular replacement method using the RORγ-LBD apo structures as a search model. Diffraction data of the RORγ-LBD were collected at 21IDF (APS), Chicago, USA. Figures were generated using PyMOL[30].
as §1

Human RORγ = target: T2, Human RORγ (Homo sapiens, UniProt P51449); experiment: Human RORγ luciferase (LUC) reporter assay; type: cell-based; conditions: for LUC activity relative to compound A: fold difference of EC50 versus compound A
T2 sequence (P51449 1-518): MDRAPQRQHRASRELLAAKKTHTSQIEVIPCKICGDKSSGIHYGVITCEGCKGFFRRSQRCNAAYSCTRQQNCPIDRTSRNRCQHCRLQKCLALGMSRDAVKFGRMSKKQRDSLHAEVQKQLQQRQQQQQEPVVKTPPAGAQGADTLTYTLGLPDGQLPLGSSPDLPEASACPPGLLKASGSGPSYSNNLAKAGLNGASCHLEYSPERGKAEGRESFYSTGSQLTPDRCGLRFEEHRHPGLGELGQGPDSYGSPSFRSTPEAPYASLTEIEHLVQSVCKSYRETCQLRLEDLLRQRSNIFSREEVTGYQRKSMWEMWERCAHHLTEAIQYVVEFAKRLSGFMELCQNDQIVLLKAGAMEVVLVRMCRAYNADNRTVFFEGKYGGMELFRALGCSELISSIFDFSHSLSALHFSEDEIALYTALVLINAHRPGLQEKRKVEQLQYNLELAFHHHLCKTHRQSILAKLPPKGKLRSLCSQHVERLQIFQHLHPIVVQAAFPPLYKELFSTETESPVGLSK
Protocol: Figure 1 The relative efficacy (RE) of CoR peptide recruitment to the RORγ-LBD and LUC activity by inverse agonists. […] Background activity in the absence of a standard inverse agonist is defined as 0% response; and maximum activity induced by a standard inverse agonist at 100μM as 100% response. […] A value of 100% is given to cells without inverse agonist in LUC assay. […] Human RORγ LUC assays were carried out in accordance with the method of Madoux et al.[31] with some modifications and described previously. EC50 was calculated by curve-fitting in GraphPad Prism. Detailed descriptions of synthesis for the compounds are described elsewhere[9],[22].

Th17 cells = test system: Th17 cells; set-up: method as in earlier work; conditions: cited from earlier work

SMILES: CC(=O)N1CC(C(=O)Nc2ccc(C)cc2C)C(c2nnc(C3CC(CC(C)C)C3)n2C2CC2)C1 (stereo not shown) [compound A]
IL-17 release (IL-17 release): effectively suppressed IL-17 release in a dose-dependent manner

EC50 (RORγ-LBD [1]; TR-FRET, GST-tagged RORγ-LBD, compound T n = 1): 250 nM
relative efficacy (RE) in CoR recruitment (RORγ-LBD [1]): about half that of compound A
relative efficacy (RE) in CoR recruitment (RORγ-LBD [1]; listed as Compound T): half the efficacy of compound A
EC50 (RORγ-LBD [2]): 500 nM
LUC activity relative to compound A (Human RORγ): nine times lower activity
LUC activity relative to compound A (Human RORγ; listed as Compound T): nine-times lower than compound A
EC50 (Human RORγ; luciferase reporter assay, means ± SE (n = 2–3)): 440 nM
SMILES: COc1ccc(-c2c(-c3nc(CC(=O)NCC4CCOCC4)cs3)cnn2C(C)(C)C)cc1 [compound T]
production of IL-17 (Th17 cells): inhibits the production of IL-17

SMILES: C[C@@H]1CC[C@@]2(OC1)O[C@H]1C[C@H]3[C@@H]4CC[C@H]5C[C@@H](O)CC[C@]5(C)[C@H]4C[C@@H](O)[C@]3(C)[C@H]1[C@@H]2C [rockogenin]
CoR peptide-recruiting activity in dual FRET assay (RORγ-LBD [1]; result in words): not detected
